Source: patent US9738634B2, “Heterocyclic amide compound and herbicide” (SYNGENTA PARTICIPATIONS AG, priority 2013, dated 2017)

How the values were obtained:
Assay type in all cases: in vivo
Settings in all cases: treatment dosage 320 g/ha
[1] = system: barnyard grass; assay: Test Example 1: weedkilling efficacy, preemergent weed treatment in the submerged state; A: barnyard grass
How it was run: (§1)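 Pre-emergence application onto floodwater (4 cm, alluvial soil) on the day of sowing, dose expressed as g/ha from diluted emulsion formulation. Weeds sown with 2.5-leaf transplanted rice as crop; plants held at 25–30 °C in greenhouse and scored against assessment criteria after 3 weeks.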

[2] = system: bulrush; assay: Test Example 1: weedkilling efficacy, preemergent weed treatment in the submerged state; B: bulrush
How it was run: as §1

[3] = system: oval-leafed pondweed; assay: Test Example 1: weedkilling efficacy, preemergent weed treatment in the submerged state; C: oval-leafed pondweed
How it was run: as §1

[4] = system: transplanted rice; assay: Test Example 1: preemergent weed treatment in the submerged state, effect on crop; a: transplanted rice
How it was run: as §1

[5] = system: barnyard grass; assay: Test Example 2: weedkilling efficacy, growth period weed treatment in the submerged state; A: barnyard grass
How it was run: (§2)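 Weeds treated at the 1-2 leaf stage by application of diluted emulsion onto floodwater (4 cm depth, alluvial soil) at specified g/ha. Grown in greenhouse at 25 to 30° C; herbicidal effect rated three weeks after treatment.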

[6] = system: bulrush; assay: Test Example 2: weedkilling efficacy, growth period weed treatment in the submerged state; B: bulrush
How it was run: as §2

[7] = system: oval-leafed pondweed; assay: Test Example 2: weedkilling efficacy, growth period weed treatment in the submerged state; C: oval-leafed pondweed
How it was run: as §2

[8] = system: crabgrass; assay: Test Example 3: weedkilling efficacy through soil treatment; D: crabgrass
How it was run: (§3)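 Crop and weed responses were judged three weeks after a uniform surface spray of the water-diluted emulsion at the given g/ha rate. Seeds sat beneath about 1.5 cm of sterilized diluvial soil, and boxes stood in a greenhouse at 25 to 30° C.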

[9] = system: green foxtail; assay: Test Example 3: weedkilling efficacy through soil treatment; E: green foxtail
How it was run: as §3

[10] = system: barnyard grass; assay: Test Example 3: weedkilling efficacy through soil treatment; F: barnyard grass
How it was run: as §3

[11] = system: wild oat; assay: Test Example 3: weedkilling efficacy through soil treatment; G: wild oat
How it was run: as §3

[12] = system: black-grass; assay: Test Example 3: weedkilling efficacy through soil treatment; H: black-grass
How it was run: as §3

[13] = system: Italian ryegrass; assay: Test Example 3: weedkilling efficacy through soil treatment; I: Italian ryegrass
How it was run: as §3

[14] = system: common wind-grass; assay: Test Example 3: weedkilling efficacy through soil treatment; J: common wind-grass
How it was run: as §3

[15] = system: Indian mallow; assay: Test Example 3: weedkilling efficacy through soil treatment; K: Indian mallow
How it was run: as §3

[16] = system: redroot pigweed; assay: Test Example 3: weedkilling efficacy through soil treatment; L: redroot pigweed
How it was run: as §3

[17] = system: fig-leafed goosefoot; assay: Test Example 3: weedkilling efficacy through soil treatment; M: fig-leafed goosefoot
How it was run: as §3

[18] = system: chickweed; assay: Test Example 3: weedkilling efficacy through soil treatment; N: chickweed
How it was run: as §3

[19] = system: birds-eye speedwell; assay: Test Example 3: weedkilling efficacy through soil treatment; p: birds-eye speedwell
How it was run: as §3

[20] = system: directly sown rice; assay: Test Example 3: soil treatment, effect on crop; b: directly sown rice
How it was run: as §3

[21] = system: corn; assay: Test Example 3: soil treatment, effect on crop; c: corn
How it was run: as §3

[22] = system: soybean; assay: Test Example 3: soil treatment, effect on crop; d: soybean
How it was run: as §3

[23] = system: wheat; assay: Test Example 3: soil treatment, effect on crop; e: wheat
How it was run: as §3

[24] = system: beet; assay: Test Example 3: soil treatment, effect on crop; f: beet
How it was run: as §3

[25] = system: rapeseed; assay: Test Example 3: soil treatment, effect on crop; g: rapeseed
How it was run: as §3

[26] = system: crabgrass; assay: Test Example 4: weedkilling efficacy by foliar treatment; D: crabgrass
How it was run: (§4)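 Seeds are spot-sown into sterilized diluvial soil and covered with about 1.5 cm of soil. After 14 days' greenhouse growth at 25 to 30° C, plants are sprayed on stems and leaves with diluted emulsion at the stated g/ha rate, then scored at 3 weeks.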

[27] = system: green foxtail; assay: Test Example 4: weedkilling efficacy by foliar treatment; E: green foxtail
How it was run: as §4

[28] = system: barnyard grass; assay: Test Example 4: weedkilling efficacy by foliar treatment; F: barnyard grass
How it was run: as §4

[29] = system: wild oat; assay: Test Example 4: weedkilling efficacy by foliar treatment; G: wild oat
How it was run: as §4

[30] = system: black-grass; assay: Test Example 4: weedkilling efficacy by foliar treatment; H: black-grass
How it was run: as §4

[31] = system: Italian ryegrass; assay: Test Example 4: weedkilling efficacy by foliar treatment; I: Italian ryegrass
How it was run: as §4

[32] = system: common wind-grass; assay: Test Example 4: weedkilling efficacy by foliar treatment; J: common wind-grass
How it was run: as §4

[33] = system: Indian mallow; assay: Test Example 4: weedkilling efficacy by foliar treatment; K: Indian mallow
How it was run: as §4

[34] = system: redroot pigweed; assay: Test Example 4: weedkilling efficacy by foliar treatment; L: redroot pigweed
How it was run: as §4

[35] = system: fig-leafed goosefoot; assay: Test Example 4: weedkilling efficacy by foliar treatment; M: fig-leafed goosefoot
How it was run: as §4

[36] = system: chickweed; assay: Test Example 4: weedkilling efficacy by foliar treatment; N: chickweed
How it was run: as §4

[37] = system: catchweed; assay: Test Example 4: weedkilling efficacy by foliar treatment; O: catchweed
How it was run: as §4

[38] = system: birds-eye speedwell; assay: Test Example 4: weedkilling efficacy by foliar treatment; p: birds-eye speedwell
How it was run: as §4

[39] = system: directly sown rice; assay: Test Example 4: foliar treatment, effect on crop; b: directly sown rice
How it was run: as §4

[40] = system: corn; assay: Test Example 4: foliar treatment, effect on crop; c: corn
How it was run: as §4

[41] = system: soybean; assay: Test Example 4: foliar treatment, effect on crop; d: soybean
How it was run: as §4

[42] = system: wheat; assay: Test Example 4: foliar treatment, effect on crop; e: wheat
How it was run: as §4

[43] = system: beet; assay: Test Example 4: foliar treatment, effect on crop; f: beet
How it was run: as §4

[44] = system: rapeseed; assay: Test Example 4: foliar treatment, effect on crop; g: rapeseed
How it was run: as §4

COc1cc(F)nc(NC(=O)C(C)(C)N2COC(C)=C(c3ccccc3)C2=O)c1 [B-2-41]
A (barnyard grass) weedkilling efficacy grade [1]: 5 (weed kill ratio 90% or more, (practically complete withering)) | B (bulrush) weedkilling efficacy grade [2]: 5 (weed kill ratio 90% or more, (practically complete withering)) | C (oval-leafed pondweed) weedkilling efficacy grade [3]: 5 (weed kill ratio 90% or more, (practically complete withering)) | a (transplanted rice) effect on crop grade [4]: 3 (weed kill ratio 40% or more, less than 70%) | A (barnyard grass) weedkilling efficacy grade [5]: 5 (weed kill ratio 90% or more, (practically complete withering)) | B (bulrush) weedkilling efficacy grade [6]: 5 (weed kill ratio 90% or more, (practically complete withering)) | C (oval-leafed pondweed) weedkilling efficacy grade [7]: 5 (weed kill ratio 90% or more, (practically complete withering)) | D (crabgrass) weedkilling efficacy grade [8]: 5 (weed kill ratio 90% or more, (practically complete withering)) | E (green foxtail) weedkilling efficacy grade [9]: 5 (weed kill ratio 90% or more, (practically complete withering)) | F (barnyard grass) weedkilling efficacy grade [10]: 5 (weed kill ratio 90% or more, (practically complete withering)) | G (wild oat) weedkilling efficacy grade [11]: 3 (weed kill ratio 40% or more, less than 70%) | H (black-grass) weedkilling efficacy grade [12]: 5 (weed kill ratio 90% or more, (practically complete withering)) | I (Italian ryegrass) weedkilling efficacy grade [13]: 5 (weed kill ratio 90% or more, (practically complete withering)) | J (common wind-grass) weedkilling efficacy grade [14]: 5 (weed kill ratio 90% or more, (practically complete withering)) | K (Indian mallow) weedkilling efficacy grade [15]: 2 (weed kill ratio 20% or more, less than 40%) | L (redroot pigweed) weedkilling efficacy grade [16]: 3 (weed kill ratio 40% or more, less than 70%) | M (fig-leafed goosefoot) weedkilling efficacy grade [17]: 4 (weed kill ratio 70% or more, less than 90%) | N (chickweed) weedkilling efficacy grade [18]: 4 (weed kill ratio 70% or more, less than 90%) | P (birds-eye speedwell) weedkilling efficacy grade [19]: 5 (weed kill ratio 90% or more, (practically complete withering)) | b (directly sown rice) effect on crop grade [20]: 4 (weed kill ratio 70% or more, less than 90%) | c (corn) effect on crop grade [21]: 0 (weed kill ratio 5% or less (practically no effect)) | d (soybean) effect on crop grade [22]: 0 (weed kill ratio 5% or less (practically no effect)) | e (wheat) effect on crop grade [23]: 0 (weed kill ratio 5% or less (practically no effect)) | f (beet) effect on crop grade [24]: 3 (weed kill ratio 40% or more, less than 70%) | g (rapeseed) effect on crop grade [25]: 4 (weed kill ratio 70% or more, less than 90%) | D (crabgrass) weedkilling efficacy grade [26]: 5 (weed kill ratio 90% or more, (practically complete withering)) | E (green foxtail) weedkilling efficacy grade [27]: 5 (weed kill ratio 90% or more, (practically complete withering)) | F (barnyard grass) weedkilling efficacy grade [28]: 5 (weed kill ratio 90% or more, (practically complete withering)) | G (wild oat) weedkilling efficacy grade [29]: 3 (weed kill ratio 40% or more, less than 70%) | H (black-grass) weedkilling efficacy grade [30]: 5 (weed kill ratio 90% or more, (practically complete withering)) | I (Italian ryegrass) weedkilling efficacy grade [31]: 5 (weed kill ratio 90% or more, (practically complete withering)) | J (common wind-grass) weedkilling efficacy grade [32]: 5 (weed kill ratio 90% or more, (practically complete withering)) | K (Indian mallow) weedkilling efficacy grade [33]: 5 (weed kill ratio 90% or more, (practically complete withering)) | L (redroot pigweed) weedkilling efficacy grade [34]: 4 (weed kill ratio 70% or more, less than 90%) | M (fig-leafed goosefoot) weedkilling efficacy grade [35]: 3 (weed kill ratio 40% or more, less than 70%) | N (chickweed) weedkilling efficacy grade [36]: 4 (weed kill ratio 70% or more, less than 90%) | O (catchweed) weedkilling efficacy grade [37]: 5 (weed kill ratio 90% or more, (practically complete withering)) | P (birds-eye speedwell) weedkilling efficacy grade [38]: 5 (weed kill ratio 90% or more, (practically complete withering)) | b (directly sown rice) effect on crop grade [39]: 4 (weed kill ratio 70% or more, less than 90%) | c (corn) effect on crop grade [40]: 4 (weed kill ratio 70% or more, less than 90%) | d (soybean) effect on crop grade [41]: 4 (weed kill ratio 70% or more, less than 90%) | e (wheat) effect on crop grade [42]: 0 (weed kill ratio 5% or less (practically no effect)) | f (beet) effect on crop grade [43]: 4 (weed kill ratio 70% or more, less than 90%) | g (rapeseed) effect on crop grade [44]: 5 (weed kill ratio 90% or more, (practically complete withering))
